In patent US20240415914A1, “Water Dispersible Cannabinoid Compositions” (priority 2021, published 2024):
Like-named read-outs stand apart in the source and are kept apart here.

Columns and labels:
[1] = Stability of cannabinoid and Vitamin E components of Beverage 2 (AB Red) stored at 8° C. and 21-25° C., LCMSMS over 570 days; settings: AB Red
Experimental: The LCMSMS was calibrated for 0-50 ng/ml cannabinoids with the same resin material used in the preparation of the concentrates. At each time period, 100 μml of beverage was diluted with 10 ml of methanol and injected into the LCMSMS for analysis.

[2] = format: physicochemical; settings: for Stability in Powder Concentrate (content by LCMSMS): stored at room temperature (21-25° C.)
Experimental: At each time period, 0.05 g of powder was dissolved in 10 ml-15 of ethanol, diluted to fall within the analytical range, and injected into the LCMSMS for analysis.

[3] = Stability of cannabinoid and Vitamin E components of Beverage 1 (AB White) stored at 8° C. and 21-25° C., LCMSMS over 570 days; format: physicochemical; settings: for Storage time after which slight degradation / significant losses are seen: AB White; for Stability in AB White, 8° C. (content by LCMSMS): beverage stored at 8° C.
Experimental: The LCMSMS was calibrated for 0-1000 ng/ml cannabinoids with the same resin material used in the preparation of the concentrates. At each time period, 100 ml of beverage was diluted with 10 ml of methanol and injected into the LCMSMS for analysis.

C=C(C)[C@@H]1CCC(C)=C[C@H]1c1c(O)cc(CCCCC)cc1O [CBD, cannabidiol, reference compound]
Storage time after which slight degradation / significant losses are seen ([1]; stored at 8° C.): > 420 days
Storage time after which slight degradation / significant losses are seen ([1]; stored at 21-25° C.): > 390 days
Chemical stability over the entire period (result in words) ([2]; powder concentrate, room temperature (21-25° C.), 570 days): no significant degradation
Stability in Powder Concentrate (content by LCMSMS) ([2]; day 0): 5.85 mg/g powder
Stability in Powder Concentrate (content by LCMSMS) ([2]; day 1): 5.69 mg/g powder
Stability in Powder Concentrate (content by LCMSMS) ([2]; day 2): 5.76 mg/g powder
Stability in Powder Concentrate (content by LCMSMS) ([2]; day 3): 5.81 mg/g powder
Stability in Powder Concentrate (content by LCMSMS) ([2]; day 5): 5.84 mg/g powder
Stability in Powder Concentrate (content by LCMSMS) ([2]; day 8): 5.91 mg/g powder
Stability in Powder Concentrate (content by LCMSMS) ([2]; day 9): 6.01 mg/g powder
Stability in Powder Concentrate (content by LCMSMS) ([2]; day 10): 5.69 mg/g powder
Stability in Powder Concentrate (content by LCMSMS) ([2]; day 11): 6.00 mg/g powder
Stability in Powder Concentrate (content by LCMSMS) ([2]; day 12): 5.76 mg/g powder
Stability in Powder Concentrate (content by LCMSMS) ([2]; day 15): 5.85 mg/g powder
Stability in Powder Concentrate (content by LCMSMS) ([2]; day 16): 5.97 mg/g powder
Stability in Powder Concentrate (content by LCMSMS) ([2]; day 17): 5.97 mg/g powder
Stability in Powder Concentrate (content by LCMSMS) ([2]; day 18): 6.01 mg/g powder
Stability in Powder Concentrate (content by LCMSMS) ([2]; day 19): 5.74 mg/g powder
Stability in Powder Concentrate (content by LCMSMS) ([2]; day 22): 5.84 mg/g powder
Stability in Powder Concentrate (content by LCMSMS) ([2]; day 23): 6.10 mg/g powder
Stability in Powder Concentrate (content by LCMSMS) ([2]; day 24): 5.89 mg/g powder
Stability in Powder Concentrate (content by LCMSMS) ([2]; day 25): 6.01 mg/g powder
Stability in Powder Concentrate (content by LCMSMS) ([2]; day 26): 6.00 mg/g powder
Stability in Powder Concentrate (content by LCMSMS) ([2]; day 29): 5.97 mg/g powder
Stability in Powder Concentrate (content by LCMSMS) ([2]; day 30): 5.94 mg/g powder
Stability in Powder Concentrate (content by LCMSMS) ([2]; day 60): 5.66 mg/g powder
Stability in Powder Concentrate (content by LCMSMS) ([2]; day 90): 6.00 mg/g powder
Stability in Powder Concentrate (content by LCMSMS) ([2]; day 120): 5.80 mg/g powder
Stability in Powder Concentrate (content by LCMSMS) ([2]; day 150): 5.65 mg/g powder
Stability in Powder Concentrate (content by LCMSMS) ([2]; day 180): 5.93 mg/g powder
Stability in Powder Concentrate (content by LCMSMS) ([2]; day 210): 5.83 mg/g powder
Stability in Powder Concentrate (content by LCMSMS) ([2]; day 240): 5.98 mg/g powder
Stability in Powder Concentrate (content by LCMSMS) ([2]; day 270): 5.72 mg/g powder
Stability in Powder Concentrate (content by LCMSMS) ([2]; day 300): 5.84 mg/g powder
Stability in Powder Concentrate (content by LCMSMS) ([2]; day 330): 6.01 mg/g powder
Stability in Powder Concentrate (content by LCMSMS) ([2]; day 360): 5.97 mg/g powder
Stability in Powder Concentrate (content by LCMSMS) ([2]; day 390): 5.93 mg/g powder
Stability in Powder Concentrate (content by LCMSMS) ([2]; day 420): 5.94 mg/g powder
Stability in Powder Concentrate (content by LCMSMS) ([2]; day 450): 5.65 mg/g powder
Stability in Powder Concentrate (content by LCMSMS) ([2]; day 480): 5.66 mg/g powder
Stability in Powder Concentrate (content by LCMSMS) ([2]; day 510): 6.01 mg/g powder
Stability in Powder Concentrate (content by LCMSMS) ([2]; day 540): 5.81 mg/g powder
Stability in Powder Concentrate (content by LCMSMS) ([2]; day 570): 5.85 mg/g powder
Storage time after which slight degradation / significant losses are seen ([3]; stored at 8° C.): > 480 days
Storage time after which slight degradation / significant losses are seen ([3]; stored at 21-25° C.): > 390 days
Stability in AB White, 8° C. (content by LCMSMS) ([3]; day 0): 28.5 µg/mL
Stability in AB White, 8° C. (content by LCMSMS) ([3]; day 1): 27.65 µg/mL
Stability in AB White, 8° C. (content by LCMSMS) ([3]; day 2): 27.67 µg/mL
Stability in AB White, 8° C. (content by LCMSMS) ([3]; day 3): 27.96 µg/mL
Stability in AB White, 8° C. (content by LCMSMS) ([3]; day 5): 28.61 µg/mL
Stability in AB White, 8° C. (content by LCMSMS) ([3]; day 8): 28.47 µg/mL
Stability in AB White, 8° C. (content by LCMSMS) ([3]; day 9): 28.44 µg/mL
Stability in AB White, 8° C. (content by LCMSMS) ([3]; day 10): 27.87 µg/mL
Stability in AB White, 8° C. (content by LCMSMS) ([3]; day 11): 28.13 µg/mL
Stability in AB White, 8° C. (content by LCMSMS) ([3]; day 12): 28.10 µg/mL
Stability in AB White, 8° C. (content by LCMSMS) ([3]; day 15): 27.99 µg/mL
Stability in AB White, 8° C. (content by LCMSMS) ([3]; day 16): 28.04 µg/mL
Stability in AB White, 8° C. (content by LCMSMS) ([3]; day 17): 27.84 µg/mL
Stability in AB White, 8° C. (content by LCMSMS) ([3]; day 18): 27.87 µg/mL
Stability in AB White, 8° C. (content by LCMSMS) ([3]; day 19): 28.36 µg/mL
Stability in AB White, 8° C. (content by LCMSMS) ([3]; day 22): 28.50 µg/mL
Stability in AB White, 8° C. (content by LCMSMS) ([3]; day 23): 27.67 µg/mL
Stability in AB White, 8° C. (content by LCMSMS) ([3]; day 24): 28.44 µg/mL
Stability in AB White, 8° C. (content by LCMSMS) ([3]; day 25): 27.65 µg/mL
Stability in AB White, 8° C. (content by LCMSMS) ([3]; day 26): 27.73 µg/mL
Stability in AB White, 8° C. (content by LCMSMS) ([3]; day 29): 28.24 µg/mL
Stability in AB White, 8° C. (content by LCMSMS) ([3]; day 30): 27.93 µg/mL
Stability in AB White, 8° C. (content by LCMSMS) ([3]; day 60): 27.73 µg/mL
Stability in AB White, 8° C. (content by LCMSMS) ([3]; day 90): 27.87 µg/mL
Stability in AB White, 8° C. (content by LCMSMS) ([3]; day 120): 27.39 µg/mL
Stability in AB White, 8° C. (content by LCMSMS) ([3]; day 150): 28.59 µg/mL
Stability in AB White, 8° C. (content by LCMSMS) ([3]; day 180): 27.59 µg/mL
Stability in AB White, 8° C. (content by LCMSMS) ([3]; day 210): 27.76 µg/mL
Stability in AB White, 8° C. (content by LCMSMS) ([3]; day 240): 27.79 µg/mL
Stability in AB White, 8° C. (content by LCMSMS) ([3]; day 270): 28.07 µg/mL
Stability in AB White, 8° C. (content by LCMSMS) ([3]; day 300): 27.96 µg/mL
Stability in AB White, 8° C. (content by LCMSMS) ([3]; day 330): 27.33 µg/mL
Stability in AB White, 8° C. (content by LCMSMS) ([3]; day 360): 27.79 µg/mL
Stability in AB White, 8° C. (content by LCMSMS) ([3]; day 390): 27.50 µg/mL
Stability in AB White, 8° C. (content by LCMSMS) ([3]; day 420): 27.50 µg/mL
Stability in AB White, 8° C. (content by LCMSMS) ([3]; day 480): 27.13 µg/mL
Stability in AB White, 8° C. (content by LCMSMS) ([3]; day 510): 26.48 µg/mL
Stability in AB White, 8° C. (content by LCMSMS) ([3]; day 540): 26.51 µg/mL
Stability in AB White, 8° C. (content by LCMSMS) ([3]; day 570): 26.22 µg/mL
